Measurements taken from US10660898B2, “Benzimidazole derivatives as PI3 kinase inhibitors” (GLAXOSMITHKLINE LLC, priority 2010, dated 2020).

Legend:
Assay in all cases: Anchorage independent soft agar tumor growth assay
BT549 = format: cell-based; conditions: BT549 breast carcinoma; PTEN p.V275fs*1, No protein; percent of DMSO-treated control
HCC1954 = format: cell-based; conditions: HCC1954 breast carcinoma, PTEN Wild-type, Protein
Procedure: (§1) Cellular Assays—Cell Growth Inhibition Assay in PTEN Wild-Type or PTEN Deficient Tumor Cell Lines Twenty-two Phosphatase and Tensin Homolog (PTEN) wild-type or PTEN deficient tumor cell lines were cultured generally according to instructions supplied by cell culture supplier American Type Culture Collection, Manassas, Va., with 10% fetal bovine serum at 5% CO2 and 37° C. Cells were seeded into either a T-75 or a T-175 flask 3-4 days prior to 96-well assay plating such that the flasks were approximately 70-80% confluent of the time of harvest. Cells were harvested using 0.25% trypsin-EDTA (Invitrogen #25200056). Trypan Blue exclusion staining was used to determine cell number. Viable cells were plated in clear, flat bottom 96-well plates (BD #353075) under anchorage independent conditions at 2,000-10,000 cells per well depending on the cell line. To generate anchorage independent growth conditions, a 5% agar stock solution in water was made and autoclaved to melt and sterilize. From the 5% agar solution, a 0.6% agar/media+10% fetal bovine serum (FBS) solution was made to generate a bottom agar layer in the plates to prevent cell attachment. Seventy five microliters per well of the 0.6% agar-media solution was added to the plates. After solidification, a cell solution of 266,870 to 1, 334,022 cells (depending on the cell line) in 10 ml of 0.3% agar/media+10% FBS was made and 75 μl of the cell/media/agar suspension was added to the plates. After the cell layer solidified, 50 μl of media+10% FBS was added to the top of the cells. A 0.3% Brij 35 (Sigma B4184) solution in media+10% FBS was added to column 12 as a background subtraction control. The cells were incubated overnight at 5% CO2 and 37° C. The next day one plate of cells was processed at the time of compound addition to quantify the starting number of cells (T=0 or T0). […] Three hundred microliters of media was added to the compound dilutions. Ten microliters per well of the serial dilutions was added to the cells and the plates incubated for 6 days at 5% CO2 and 37° C. […] Following the 6-day incubation, 20 μl of Alamar Blue (Invitrogen # DAL1100) was added to the cells, incubated at 5% CO2 and 37° C. for 6 hours and the plates read on a Spectramax (Gemini EM) at 530 nm (excitation) and 590 nm (emission) with the auto cut-off disabled. For analysis of cell growth inhibition dose response curves, the data was plotted as the percent of the DMSO-treated control samples (DMSO samples set to 100%). […] Values from wells containing 0.3% Brij 35 (under anchorage independent conditions) were subtracted from all samples for background correction.

SKOV-3 = format: cell-based; conditions: SKOV-3 ovary adenocarcinoma, PTEN Wild-type
Procedure: as §1

Colo205 = format: cell-based; conditions: Colo205 colon carcinoma, PTEN Wild-type
Procedure: as §1

SW1783 = format: cell-based; conditions: SW1783 CNS glioblastoma, PTEN p.R233*, No protein
Procedure: as §1

U251 = format: cell-based; conditions: U251 CNS glioblastoma, PTEN p.E242fs*15, No protein
Procedure: as §1

CHL-1 = format: cell-based; conditions: CHL-1 skin melanoma, PTEN Wild-type, Protein
Procedure: as §1

UACC-62 = format: cell-based; conditions: UACC-62 skin melanoma, PTEN p.P248fs*5, No protein
Procedure: as §1

HCC1395 = format: cell-based; conditions: HCC1395 breast carcinoma, PTEN p.N212fs*3, No protein
Procedure: as §1

HCT-116 = format: cell-based; conditions: HCT-116 colon carcinoma, PTEN Wild-type
Procedure: as §1

HCC19377 = format: cell-based; conditions: HCC19377 breast carcinoma, PTEN Loss, No protein
Procedure: as §1

SW1088 = format: cell-based; conditions: SW1088 CNS glioblastoma, PTEN Loss, No protein
Procedure: as §1

H4 = format: cell-based; conditions: H4 CNS glioblastoma, PTEN Loss, No protein
Procedure: as §1

BT474 = format: cell-based; conditions: BT474 breast carcinoma, PTEN Wild-type, Protein
Procedure: as §1

LOXIMVI = format: cell-based; conditions: LOXIMVI skin melanoma, PTEN Wild-type, Protein
Procedure: as §1

PC-3 = format: cell-based, human; conditions: PC-3 prostate carcinoma, PTEN Loss, No protein
Procedure: Cellular Assays—Cell Growth Inhibition Assay in PTEN Wild-Type or PTEN Deficient Tumor Cell Lines Twenty-two Phosphatase and Tensin Homolog (PTEN) wild-type or PTEN deficient tumor cell lines were cultured generally according to instructions supplied by cell culture supplier American Type Culture Collection, Manassas, Va., with 10% fetal bovine serum at 5% CO2 and 37° C. Cells were seeded into either a T-75 or a T-175 flask 3-4 days prior to 96-well assay plating such that the flasks were approximately 70-80% confluent of the time of harvest. Cells were harvested using 0.25% trypsin-EDTA (Invitrogen #25200056). Trypan Blue exclusion staining was used to determine cell number. Viable cells were plated in clear, flat bottom 96-well plates (BD #353075) under anchorage independent conditions at 2,000-10,000 cells per well depending on the cell line. To generate anchorage independent growth conditions, a 5% agar stock solution in water was made and autoclaved to melt and sterilize. […] The next day one plate of cells was processed at the time of compound addition to quantify the starting number of cells (T=0 or T0). […] Following the 6-day incubation, 20 μl of Alamar Blue (Invitrogen # DAL1100) was added to the cells, incubated at 5% CO2 and 37° C. for 6 hours and the plates read on a Spectramax (Gemini EM) at 530 nm (excitation) and 590 nm (emission) with the auto cut-off disabled. […]

[1] = percent of DMSO-treated control
[2] = Homo sapiens, 144 h, 6-day incubation, Alamar Blue, read-out: Compound EC50 (nM) ± StDev
[3] = 144 h, 6-day incubation, Alamar Blue, read-out: Compound EC50 (nM) ± StDev

- EC50 (HCC1954; [2]): > 30700 nM
- EC50 (SKOV-3; Homo sapiens, SK-OV-3, 144 h, 6-day incubation, Alamar Blue, read-out: Compound EC50 (nM) ± StDev): > 30700 nM
- EC50 (Colo205; Homo sapiens, COLO 205, 144 h, 6-day incubation, Alamar Blue, read-out: Compound EC50 (nM) ± StDev): > 30700 nM
- EC50 (SW1783; [2]): 10 ± 3 nM
- EC50 (U251; Homo sapiens, U-251, 144 h, 6-day incubation, Alamar Blue, read-out: Compound EC50 (nM) ± StDev): 19000 ± 8620 nM
- EC50 (CHL-1; [2]): 14 ± 6 nM
- EC50 (UACC-62; [2]): 23 ± 27 nM
- EC50 (HCC1395; [2]): 114 ± 53 nM
- EC50 (HCT-116; [2]): > 30700 nM
- EC50 (HCC19377; [3]): 24 ± 8 nM
- EC50 (SW1088; [2]): 12 ± 6 nM
- EC50 (H4; [3]): 12 ± 8 nM
- EC50 (BT474; Homo sapiens, BT-474, 144 h, 6-day incubation, Alamar Blue, read-out: Compound EC50 (nM) ± StDev): 3360 ± 868 nM
- EC50 (LOXIMVI; Homo sapiens, LOX IMVI, 144 h, 6-day incubation, Alamar Blue, read-out: Compound EC50 (nM) ± StDev): > 30700 nM
- EC50 (PC-3; [2]): 27 ± 12 nM
Structure (SMILES): Cc1c(Cn2c(C)nc3c(C(=O)O)cc(N4CCOCC4)cc32)cccc1C(F)(F)F [Example 31, 2-methyl-1-{[2-methyl-3-(trifluoromethyl)phenol]methyl}-6-(4-morpholinyl)-1H-benzimidazole-4-carboxylic acid]
- Compound Ymin ± StDev (BT549): 52 ± 7
- Compound Ymin ± StDev (HCC1954; [1]): >80
- Compound Ymin ± StDev (SKOV-3; [1]): >80
- Compound Ymin ± StDev (Colo205; [1]): >80
- Compound Ymin ± StDev (SW1783; [1]): 69 ± 4
- Compound Ymin ± StDev (U251; [1]): 80 ± 17
- Compound Ymin ± StDev (CHL-1; [1]): 82 ± 2
- Compound Ymin ± StDev (UACC-62; [1]): 76 ± 18
- Compound Ymin ± StDev (HCC1395; [1]): 26 ± 9
- Compound Ymin ± StDev (HCT-116; [1]): >80
- Compound Ymin ± StDev (HCC19377; [1]): 67 ± 8
- Compound Ymin ± StDev (SW1088; [1]): 36 ± 8
- Compound Ymin ± StDev (H4; [1]): 55 ± 18
- Compound Ymin ± StDev (BT474; [1]): 75 ± 3
- Compound Ymin ± StDev (LOXIMVI; [1]): >90
- Compound Ymin ± StDev (PC-3; [1]): 82 ± 13
